{
  "source": "patent US11604141B2",
  "about": "“Zinc-selective fluorescent probes for emission-ratiometric imaging” (Georgia Tech Research Corporation, priority 2017, dated 2023)",
  "key": {"[1]": {"experiment": "UV-vis absorption spectra in methanol", "assay_type": "physicochemical", "settings": "methanol at 298 K, relative to compound I", "from_the_text": "FIG. 26: UV-vis absorption spectra of compounds I, […] in methanol at 298 K.\nUV-vis Spectral Characterization of Compounds I, II, and III."}, "[2]": {"experiment": "Spectrophotometric pH titration, determination of protonation constants", "assay_type": "physicochemical", "settings": "aqueous 0.1 M KCl solution, 25° C., fit to a single protonation, read-out: ground-state pKa (pKH1) of the pyridyl acceptor", "method": "FIG. 12. Spectrophotometric pH titration of compound 1 at 25° C. in aqueous buffer (5 mM PIPBS, 0.1 M KCl, 5 mM KOH, pH 5.6). Black arrows indicate the change in absorbance after each aliquot of HCl was added. The absorbance from 250-500 nm was recorded as a function of pHe (−log[H3O^+]), and the data were analyzed by non-linear least squares fitting to a single protonation to yield an average pKH1=4.49±0.002 (n=3).\nFIG. 13. Spectrophotometric pH titration of compound 2 at 25° C. in 0.1 M KCl. Black arrows indicate the change in absorbance after each aliquot of HCl was added. The absorbance (250-500 nm) was recorded as a function of pHc (−log[H3O^+]), and the data were analyzed by non-linear least squares fitting to a single protonation to yield an average pKH1=2.34±0.002 (n=3).\nProtonation constants were determined as concentration constants (log KH) based on potentiometric titrations using a combination double junction glass electrode. […] From the experimental emf data, the endpoint, electrode potential, and slope were determined using Gran's Method as implemented in the GLEE software package (pKw=13.78, μ=0.1 M KCl).^1 The calibration procedure was performed prior to each potentiometric titration, and the experimental electrode potential and slope that were used to calculate the experimental p[H] were derived as the average of the emf data from three independent titrations. […]"}, "[3]": {"experiment": "Excited-state pKa calculated using the Forster Cycle", "assay_type": "physicochemical", "settings": "calculated with the Forster Cycle", "from_the_text": "To circumvent the issue of excited-state protonation of the fluorophore, the inventors synthesized a chromis-1 compound 1, whose structure lacked the bis(2-pyridylmethyl)amine chelating moiety but incorporated an O-alkylsulfonate group to enhance water solubility, to determine the unperturbed ground-state pKa of the pyridyl acceptor."}, "[4]": {"experiment": "Determination of fluorescence quantum yields (referenced to quinine sulfate)", "assay_type": "physicochemical", "settings": "neutral form, 10 mM PIPES, 100 mM KCl, pH 7.0; sodium salt", "method": "Determination of Fluorescence Quantum Yields. Fluorescence quantum yields of 1, 2, 3b and chromis-2 (4) were determined in aqueous buffer (10 mM PIPES, 0.1 M KCl) at pH 7.0 by a 4-point measurement over an OD range of 0.1-0.4 using a […], with fluorimeter excitation at 365 nm. For probes 3b and chromis-2, the solutions containing the free forms were supplemented with 20 μM EDTA (from a 30 mM stock solution in diH2O) to sequester adventitious Zn(II), whereas to determine the Zn(II)-bound forms, the solutions were supplemented with 20 μM ZnSO4.7H2O to ensure complete saturation of the fluorophore. Fluorescence quantum yields for all fluorophores were determined using quinine sulfate (Df=0.546 in 1.0 N H2SO4) as a fluorescence standard.^2 To determine the quantum yield of 3a, single-point measurements were performed in aqueous buffer (10 mM PIPES, 0.1 M KCl, pH 7.0) supplemented with 100 μM 4:1 DMPC:DMPG liposomes and at a probe concentration of 2 μM. The quantum yields were also referenced to quinine sulfate with an OD matching that of 3a (2 μM) in liposomes."}, "[5]": {"experiment": "Steady-state absorption and fluorescence spectroscopy, molar ratio titration with Zn(II)", "assay_type": "physicochemical", "method": "General Spectroscopic Methods. All buffers and stock solutions used for spectroscopic measurements were prepared using either HPLC-grade water (JT Baker) or 18.2 MΩ.cm Mili-Q water and filtered through a 0.2 μm filter to remove interfering dust particles or fibers. UV-Vis measurements were performed on a Varian Cary Bio50 spectrophotometer with a constant temperature accessory (Peltier) at 25° C. Fluorescence measurements were performed with a PTI fluorimeter equipped with a 75 W xenon arc lamp excitation source and a photomultiplier detection system (PMT voltage was 1100 V for all experiments). Fluorescence spectra were corrected for the spectral response of the detection system and for the spectral irradiance of the excitation source (via a calibrated photodiode). For all experiments, both UV-Vis and fluorescence, a 1-cm path length quartz cuvette was used, except for quantum yield determinations, which were performed with a 10-cm path length quartz cuvette for absorbance measurements.\nMolar Ratio Titration of Probe 3b with Zn(II). […] After each aliquot, the solution was equilibrated for 30 seconds by magnetic stirring, and an absorbance (spectral window: 250-500 nm) (FIG. 14A) and fluorescence spectrum (excitation: 361 nm, spectral window: 380-700 nm) (FIG. 14B) were acquired.\nMolar Ratio Titration of Chromis-2 with Zn(II). […] After each aliquot, the solution was equilibrated for 30 seconds by magnetic stirring, and an absorbance (spectral window: 250-500 nm) and fluorescence spectrum (excitation: 361 nm, spectral window: 380-700 nm) were acquired."}, "[6]": {"experiment": "Fluorescence solvent deuterium-isotope studies (D2O vs H2O buffer)", "assay_type": "physicochemical", "method": "Fluorescence Deuterium-Isotope Studies of Compounds 1 & 2. Comparison of the fluorescence intensities of compounds 1 and 2 were conducted in deuterated and non-deuterated buffer (10 mM PIPES, 100 mM KCl, pH/D 7.0, 25° C.). A 3.0-mL solution of aqueous buffer was supplemented with 10 μM of each compound (from 3 mM stock solutions in H2O), and after thorough mixing via magnetic stirring, fluorescence spectra of 1 were acquired over the spectral window of 380-700 nm with excitation at […] and analogous fluorescence spectra of 2 were acquired over the spectral window of 380-650 nm with excitation at […].\nFluorescence Comparison of 3b and chromis-2 (4). Fluorescence comparison measurements of 3b and chromis-2 were conducted in deuterated and non-deuterated buffer (10 mM PIPES, 100 mM KCl, pH/D 7.0, 25° C.). A quartz cuvette with a 1-cm path length containing 3.0 mL of aqueous buffer was supplemented with 5 μM 3b (from a 3 mM stock solution in H2O), and after a 30-second equilibration via magnetic stirring, a fluorescence spectrum was acquired over the spectral window of 380-700 nm with excitation at 361 nm. The probe was then saturated with 5 μM ZnSO4.7H2O (from a 3 mM stock solution in H2O), and a fluorescence spectrum was acquired. This was repeated for 3b in deuterated buffer, but with supplementation of 5 μM ZnSO4.7H2O from a 3 mM stock solution in D2O. […]"}, "[7]": {"settings": "in 1N H2SO4; cited from earlier work"}, "[8]": {"system": "labile Zn(II) pools in live NIH 3T3 mouse fibroblasts", "experiment": "Ratiometric TPEM imaging of labile Zn(II) in live cells", "assay_type": "cell-based", "method": "FIG. 25A-25B. Ratiometric imaging of labile Zn(II) pools in live NIH 3T3 mouse fibroblasts with chromis-2 by TPEM (excitation at 720 nm). (FIG. 25A) Left: Phase contrast image (DIC) and fluorescence intensity images acquired with 425-462 nm (BP1) and 478-540 nm (BP2) bandpass filters, respectively. Right: Intensity ratio image with R=BP2/BP1. (FIG. 25B) Left: Ratio images (BP2/BP1) prior (at 3 min) and after addition of 50 μM ZnSO4 and 5 μM pyrithione (at 9 min). […] Right: Time course of the average intensity ratio change for the ROI indicated with a white circle in the left panel. The asterisks indicate time points for the respective ratio images shown to the left. Scale bars: 40 μm.\nTo evaluate the Zn(II)-dependent ratiometric response of chromis-2 within the chemical complexity of a live cell, we performed a perfusion experiment with NIH 3T3 mouse fibroblasts as model system (FIG. 25). To this end, fibroblast cells were cultured in Dulbecco's modified Eagle's medium (DMEM, Lonza) supplemented with 10% bovine serum (Gemini), penicillin/streptomycin (50 IU/mL), 200 μM L-glutamine, and 100 μM sodium pyruvate at 37° C. under an atmosphere of humidified air containing 5% CO2. For imaging experiments, cells were grown to 70% confluency on MatTek glass bottom culture dishes pre-coated with poly-L-lysine using phenol red-free DMEM (10% bovine serum, 50 IU/mL penicillin/streptomycin, 200 μM L-glutamine, and 100 μM sodium pyruvate). After replacing the growth medium with serum-free DMEM containing chromis-2 (10 μM), cells were incubation for 30 minutes at 37° C. (5% CO2 atmosphere), and the incubation solution was again replaced with pre-warmed full media. Cells were imaged in an atmospheric chamber at 37° C., […], and 5% CO2 using a Zeiss LSM confocal NLO 710 microscope equipped with a femtosecond pulsed Ti:sapphire laser. Scanning fluorescence micrographs were acquired with excitation at 720 nm, and the integrated emission intensity was simultaneously collected through two band pass filters between 425-462 nm and 478-540 nm. The corresponding ratio-images were derived with ImageJ based on the integrated photon counts on a pixel-per-pixel basis (FIG. 25A, right). […] Although the fluorescence intensity distribution appears uneven, including distinct punctate localizations, the corresponding ratio-image indicates a rather even fractional saturation with an average ratio R of 0.64±0.2."}, "[9]": {"settings": "Neutral, 10 mM PIPES, 100 mM KCl, pH 7.0"}},
  "note": "Counter-ions that a name gives are not always drawn.",
  "data": [
    {"smiles": "COc1ccc(-c2ccc(-c3cnc(-c4ccccn4)s3)s2)cc1", "note": "[Compound III]", "values": [
      {"measurement": "change of UV-vis absorption spectrum (in words)", "setting": "[1]", "result": "red-shifted absorption spectrum"}
    ]},
    {"smiles": "O=S(=O)([O-])CCCOc1ccc(-c2cnc(-c3ccncc3)s2)cc1.[Na+]", "note": "[compound 1, 3-(4-(2-(pyridin-4-yl)thiazol-5-yl)phenoxy)propane-1-sulfonate sodium salt]", "values": [
      {"measurement": "pKa", "setting": "[2]", "result": "4.49 ± 0.002"},
      {"measurement": "pKa", "setting": "[3]", "result": "~11.7"},
      {"measurement": "ΦF fluorescence quantum yield", "setting": "[4]", "result": 0.65},
      {"measurement": "Abs λmax", "setting": "[5]; [9]", "result": 346, "unit": "nm"},
      {"measurement": "Em λmax", "setting": "[5]; [9]", "result": 489, "unit": "nm"},
      {"measurement": "ε", "setting": "[5]; [9]", "result": "1.80 10^4 M^−1cm^−1"},
      {"measurement": "Abs λmax", "setting": "[5]; Protonated, 0.1N HCl (pH 1.0)", "result": 397, "unit": "nm"},
      {"measurement": "Em λmax", "setting": "[5]; Protonated, 0.1N HCl (pH 1.0)", "result": 582, "unit": "nm"},
      {"measurement": "ε", "setting": "[5]; Protonated, 0.1N HCl (pH 1.0)", "result": "1.96 10^4 M^−1cm^−1"},
      {"measurement": "increase in fluorescence intensity in D2O relative to H2O", "setting": "[6]; 10 mM PIPES, 0.1 M KCl, pH/D 7.0, 25° C.", "result": 18, "unit": "%"}
    ]},
    {"smiles": "C=C[C@H]1C[N@@]2CC[C@H]1C[C@H]2[C@H](O)c1ccnc2ccc(OC)cc12", "note": "[quinine sulfate]", "values": [
      {"measurement": "ΦF of fluorescence standard", "setting": "[7]", "result": 0.546}
    ]},
    {"smiles": "O=S(=O)([O-])CCCOc1ccc(-c2cnc(-c3ccccn3)s2)cc1.[Na+]", "note": "[compound 2, 3-(4-(2-(pyridin-2-yl)thiazol-5-yl)phenoxy)propane-1-sulfonate sodium salt]", "values": [
      {"measurement": "pKa", "setting": "[2]", "result": 2.34},
      {"measurement": "pKa", "setting": "[3]", "result": 9.4},
      {"measurement": "excited-state pKa (pKa*)", "setting": "[3]; sodium salt", "result": 9.5},
      {"measurement": "ΦF fluorescence quantum yield", "setting": "[4]", "result": 0.80},
      {"measurement": "Abs λmax", "setting": "[5]; [9]", "result": 345, "unit": "nm"},
      {"measurement": "Em λmax", "setting": "[5]; [9]", "result": 467, "unit": "nm"},
      {"measurement": "ε", "setting": "[5]; [9]", "result": "2.25 10^4 M^−1cm^−1"},
      {"measurement": "Abs λmax", "setting": "[5]; Protonated, 0.1N HCl (pH 1.0)", "result": 386, "unit": "nm"},
      {"measurement": "Em λmax", "setting": "[5]; Protonated, 0.1N HCl (pH 1.0)", "result": 565, "unit": "nm"},
      {"measurement": "ε", "setting": "[5]; Protonated, 0.1N HCl (pH 1.0)", "result": "2.05 10^4 M^−1cm^−1"},
      {"measurement": "solvent deuterium isotope effect on emission (in words)", "setting": "[6]; D2O versus H2O buffers", "result": "identical emission profiles"}
    ]},
    {"smiles": "COc1ccc(-c2cnc(-c3cccc(CN(Cc4ncccn4)Cc4ncccn4)n3)s2)cc1", "note": "[chromis-2]", "values": [
      {"measurement": "increase of intensity ratio upon ZnSO4 and pyrithione", "setting": "[8]; NIH 3T3", "result": "more than 4 fold"},
      {"measurement": "average intensity ratio R (BP2/BP1), initial", "setting": "[8]; NIH 3T3, 10 μM probe, excitation 720 nm, before additions", "result": "0.64±0.2"},
      {"measurement": "intensity ratio R after ZnSO4 and pyrithione", "setting": "[8]; NIH 3T3, 50 μM ZnSO4 and 5 μM pyrithione", "result": "2.36±0.6"},
      {"measurement": "intensity ratio R after TPEN", "setting": "[8]; NIH 3T3, 100 μM TPEN", "result": "0.55±0.2"}
    ]},
    {"smiles": "CN(C)c1ccc(-c2cnc(-c3ccccn3)s2)cc1", "note": "[Compound II]", "values": [
      {"measurement": "change of UV-vis absorption spectrum (in words)", "setting": "[1]", "result": "red-shifted absorption spectrum"}
    ]}
  ]
}
